Measurements: patent US11135196B1, “Pharmaceutical composition and its use to inhibit membrane ACE2 expression” (priority 2020, dated 2021)

What was measured:
ACE2 protein [1] = experiment: Western blot of ACE2 protein expression in HMEC; settings: 1.0 mM, 6 days
Method: (§2) Human Small Airways Epithelial Cells (SAEC), purchased from ATCC, (Manassas, Va., USA) were cultured in Airways Epithelial Cells growth medium (ATCC) in plastic flasks at 37° C. and 5% CO2. For the experiments, the cells (passage 5-7) were plated to collagen-covered 96-well plates in 100 μL/well growth medium and were grown to confluent layer for 4 to 7 days. Human Microvascular Endothelial Cells isolated from lung (HMEC), purchased from Lonza, (Hayward, Calif., USA) were cultured in EGM-2 MV growth medium (Lonza) in plastic flasks at 37° C. and 5% CO2. […]
(§3) Western blot: SAEC and HMEC were plated on 6-well plates and supplemented with 0.3, 0.6, 0.8, and 1 mM ascorbic acid, respectively. […] The protein concentration was measured by the Dc protein assay (Bio-Rad, Hercules, Calif., USA). Fifty microgram per well of protein was separated on 8% to 16% gradient SDS-PAGE gels (ie, Tris-based electrophoresis using standard Laemmle's method without (3-ME addition to sample buffer) and transferred to a PVDF membrane. Proteins were detected with commercially available anti-ACE-2 monoclonal antibody diluted 1:250 (R&D, Minneapolis, Minn., USA) and anti-β-actin antibody as a loading control (Cell Signaling, Danvers, Mass., USA).

ACE2 mRNA [2] = experiment: qRT-PCR of ACE2 gene expression in SAEC; type: cell-based, human; settings: 1.0 mM, 6 days, normalised to β-actin
Method: (§1) After 6 days, total RNA was isolated using RNeasy Plus Mini Kit (Qiagen, Germantown, Md., USA). Next, 2500 ng of each isolate was transcribed in cDNA using RT^2 HT First Strand Kit (Qiagen, Germantown, Md., USA) and subjected to qRTPCR using specific primers for ACE2 (forward primer, SEQ ID. NO. 1-5′-[…] -3′; and reverse primer, SEQ ID. NO. 2-5′-[…] -3) and β-actin (forward primer, SEQ ID. NO. 3-5′-[…] -3′; and reverse primer, SEQ ID. NO. 4-5′-[…] -3′). The PCR was performed with a QuantiTect SYBR® Green PCR Kit as the source of 2.5 mM Mg2+, deoxynucleotides and HotStarTaq DNA polymerase, in addition to each primer used at a concentration of 0.3 μM in a 50 μL qPCR mixture (Qiagen, Germantown, Md., USA) in a BioRad CFX instrument (BioRad, Hercules, Calif., USA). The qPCR cycler conditions were programmed according to the manufacturer's recommendations and were as follows: an activation step at 95° C. for 15 minutes, 40 cycles of: denaturation at 94° C. for 15 seconds, annealing at 60° C. for 30 seconds, and extension at 72° C. for 30 seconds. To verify the specificity and identity of the qPCR product, melting curve analyses were performed. The amount of β-actin cDNA was used to normalize the sample amounts used for determinations. All samples were tested in duplicate PCR reactions and the mean of the reactions was used for calculating the expression levels.

ACE2 protein [3] = experiment: Western blot of ACE2 protein expression in SAEC; settings: 1.0 mM, 6 days
Method: as §2, §3

ACE2 receptor [4] = experiment: ACE-2 ELISA assay in Human Aortic Endothelial Cells, 7 days supplementation; type: cell-based; settings: 50-100 mcM, FIG. 1
Method: Cell supplementation with ascorbic acid: Cells were supplemented with indicated doses of ascorbic acid (Sigma) in EGM-2 for 7 days with six repetitions for each dose. Experimental medium was changed every 2-3 days with freshly prepared ascorbic acid solution in EGM-2.
Mouse monoclonal anti ACE-2 antibody (Santa Cruz Biotechnology) was added in 100 mcl 1% BSA/PBS for 1.5 h incubation at room temperature (RT). […] After three wash cycles with 0.1% BSA/PBS retained HRP activity was determined by incubation 100 mcl TMB substrate solution (Sigma) for 20 min at RT and addition of 50 mcl of 1N H2SO4 by measuring optical density at 450 nm with micro plate reader (Molecular Devices). Results are expressed as percentage of ascorbate-free Control (mean+/−SD, n=6).

ACE2 receptor [5] = experiment: ACE2 ELISA assay in Human Small Airways Epithelial Cells (SAEC), 6 days; settings: for decrease of ACE2 expression: FIG. 5A
Method: Human Small Airways Epithelial Cells (SAEC), purchased from ATCC, (Manassas, Va., USA) were cultured in Airways Epithelial Cells growth medium (ATCC) in plastic flasks at 37° C. and 5% CO2. For the experiments, the cells (passage 5-7) were plated to collagen-covered 96-well plates in 100 μL/well growth medium and were grown to confluent layer for 4 to 7 days.
For the experiments, cells were supplemented with indicated doses of tested compounds in 100 μL/well of cell growth medium for 6 days with fresh media supplementations every 2 to 3 days. […] Culture plate wells were washed twice with phosphate buffered saline (PBS) and fixed with 3% formaldehyde/0.5% Triton X-100/PBS solution for 1 hour at 4° C., then washed 4 times with PBS. Two-hundred microliter of 1% bovine serum albumin-BSA (Sigma-Aldrich, St. Louis, Mo., USA) in PBS was added and the plate was incubated at 4° C. overnight. Rabbit polyclonal anti-ACE-2 antibodies (Sigma Aldrich, St. Louis, Mo., USA) were added in 100 μL/well 1% BSA/PBS solution for 1.5 hours incubation at room temperature (RT). After 3 wash cycles with 0.1% BSA/PBS wells were supplied with 100 μL/well of anti-rabbit IgG antibodies conjugated with horse radish peroxidase (HRP, Sigma, St. Louis, Mo., USA) for 1 hour at RT. After 3 wash cycles with 0.1% BSA/PBS the HRP activity retained was determined by incubation with 100 μL/well TMB substrate solution (Sigma-Aldrich, St. Louis, Mo., USA) for 20 minutes. at RT, followed by the addition of 50 μL/well of 1N H2504 and optical density measurement at 450 nm with microplate reader (Molecular Devices, San Jose, Calif., USA).
Results are expressed as a percentage of experimental addition—free control (mean±SD, n=6). Non-specific control (wells incubated without anti-ACE2 antibodies) mean value (n=6) was subtracted from all sample values.

ACE2 mRNA [6] = experiment: qRT-PCR of ACE2 gene expression in HMEC; type: cell-based, human; settings: 1.0 mM, 6 days, normalised to β-actin
Method: as §1

SAEC = experiment: Cytotoxic effects on SAEC; type: cell-based, human

How did the “reduction of ACE2 protein (Western blot)” value (ACE2 protein [1]) turn out when `O=C1O[C@H]([C@@H](O)CO)C(O)=C1O` [ascorbic acid] was run?
The value was 60%.

What about the “reduction of ACE2 protein (Western blot)” value (ACE2 protein [1]; listed as ascorbate) of the same compound?
The value was “significantly lower”.

What about the “ACE2 gene expression decreased by (fold)” value (ACE2 mRNA [2]) of the same compound?
Its value is 0.61 fold.

And the “reduction of ACE2 protein (Western blot)” value (ACE2 protein [3])?
The value was 55%.

What about the “reduction of ACE2 protein (Western blot)” value (ACE2 protein [3]; listed as ascorbate) of the same compound?
Its value is “significantly lower”.

What about the “suppression of the expression of the ACE2 receptor” value (ACE2 receptor [4]) of the same compound?
Its value is “over 50%”.

And the “decrease of ACE2 expression” value (ACE2 receptor [5]; 0.6 mM)?
Its value is “about 18%”.

What about the “decrease of ACE2 expression” value (ACE2 receptor [5]; 1.0 mM) of the same compound?
The value was 27%.

What about the “decrease of membrane expression of ACE2” value (ACE2 receptor [5]; 800 mcM, FIG. 4) of the same compound?
Its value is 27%.

What about the “ACE2 gene expression decreased by (fold)” value (ACE2 mRNA [6]) of the same compound?
Its value is 0.54 fold.

How did the “inhibition of ACE2 expression, used individually” value (shortened to “inhibition … used individually”) (ACE2 receptor [5]; 2 mM) turn out when `CC(=O)N[C@@H](CS)C(=O)O` [NAC] was run?
The value was 18%.

With `C=CCCCCCCCCC(=O)O` [10-undecanoic acid] as the compound, how does the “decrease of ACE2 expression, individual effect” value (ACE2 receptor [5]; concentration not given, FIG. 9) read?
The value was 18%.

For `O=c1cc(-c2ccccc2)oc2cc(O)c(O)c(O)c12` [baicalein], which “inhibition … used individually” value (ACE2 receptor [5]; 25 μM, compared to no ascorbate control, FIG. 7) is on record?
The value was 75%.

How did the “inhibition … used individually” value (ACE2 receptor [5]; 33 μg/mL and 50 μM respectively, FIG. 10) turn out when `O=c1c(O)cc([C@H]2Oc3cc(O)cc(O)c3C[C@H]2O)cc2c([C@H]3Oc4cc(O)cc(O)c4C[C@H]3O)cc(O)c(O)c12` [Theaflavin] was run?
Its value is “about 50%”.

`CCCCCCCCCCCCCCCC(=O)OC[C@H](O)[C@H]1OC(=O)C(O)=C1O` [ascorbyl palmitate] was tested. Which “inhibition of ACE2 expression” value (ACE2 receptor [5]; 75 μM, FIG. 5B) did it give?
The value was 50%.

And the “concentrations showing cytotoxic effects” value (SAEC)?
Its value is > 100 µM.
